Laboratory results published in patent US10683553B2, “Method for determining sensitivity to simultaneous inhibitor against PARP and Tankyrase” (THE ASAN FOUNDATION, priority 2015, dated 2020).

Key:
Experiment in all cases: Trypan blue staining apoptosis assay
Type in all cases: cell-based
[1] = tested on: RKO human colon cancer cell line; settings: RKO (p53 WT/LIG4 MT); 25 μM and 50 μM, 48 hours
From the text: (§1) In order to analyze the degree of apoptosis of Compound A, which is a novel PARP/Tankyrase simultaneous inhibitor according to a p53 genotype and LIG4 genotype, the present inventors treated a novel PARP/Tankyrase simultaneous inhibitor, Compound A, and a competitive drug PARP inhibitor, olaparib, in RKO, LoVo human colon cancer cell line in which the p53 gene is a normal type and the LIG4 gene is a mutant type and an SW620 human colon cancer cell line in which the p53 gene is a mutant type and the LIG4 gene is a normal type. The number of cells was measured by trypan blue staining assay to confirm the degree of apoptosis. The conditions and methods of the experiment were as follows: RKO, LoVo human colon cancer cell line in which the p53 gene is a normal type and the LIG4 gene is a mutant type and the SW620 human colon cancer cell line in which the p53 gene is a mutant type and the LIG4 gene is a normal type were cultured in RPMI1640 (10% FBS, 1% penicillin/streptomycin) and cultured in a 60 mm plate at 1×10^5 per well for 24 hours at 37° C. Compound A, which is a novel PARP/Tankyrase simultaneous inhibitor, and olaparib, which is a competitive drug PARP inhibitor, were treated with each of 25 μM and 50 μM and were cultured for 48 hours. The number of cells was measured by trypan blue staining assay to confirm the degree of apoptosis.
In order to analyze the degree of apoptosis of Compound A, which is a novel PARP/Tankyrase simultaneous inhibitor, according to the p53 genotype and an LIG4 genotype, the present inventors treated Compounds A and B, which are novel PARP/Tankyrase simultaneous inhibitors, in the RKO and LoVo human colon cancer cell lines in which the p53 gene is a normal type and an LIG4 gene is a mutant type. Then, the number of cells was measured by trypan blue staining assay to confirm the degree of apoptosis. The RKO and LoVo human colon cancer cell lines were cultured under the same conditions as in Example 5. Compounds A and B, which are novel PARP/Tankyrase simultaneous inhibitors, were treated with 25 μM and 50 μM, respectively, for 48 hours. After 48 hours of culturing, the number of cells was measured by trypan blue staining assay to confirm the degree of apoptosis. […]

[2] = tested on: SW620 human colon cancer cell line; settings: SW620 (p53 MT/LIG4 WT); 25 μM and 50 μM, 48 hours
From the text: as §1
(§2) In order to analyze the degree of apoptosis of Compounds A and B, which are novel PARP/Tankyrase simultaneous inhibitors, in a cell line RKO in which the p53 genotype is a normal type and an LIG4 genotype is a mutant type, a cell line SW620 in which the p53 genotype is a mutant type and an LIG4 genotype is a normal type, a cell line HCT8 in which the p53 genotype and an LIG4 genotype are normal, and a cell line KM12C in which the p53 genotype and an LIG4 genotype are mutant, the human colon cancer cell lines of RKO, HCT, SW620 and KM12C with different p53 genotype and LIG4 genotype were cultured in RPMI1640 (10% FBS, 1% penicillin/streptomycin) and cultured in a 60 mm plate at 1×10^5 per well for 24 hours at 37° C. Compounds A and B, which are novel PARP/Tankyrase simultaneous inhibitors, and olaparib, which is a competitive drug PARP inhibitor, and NVP-TNKS656, which is a Tankyrase inhibitor, were treated with each of 25 μM and 50 μM. After 48 hours of culturing, the number of cells was measured by trypan blue staining assay to confirm the degree of apoptosis.

[3] = tested on: HCT8 human colon cancer cell line; settings: HCT8 (p53 WT/LIG4 WT); 25 μM and 50 μM, 48 hours
From the text: as §2

[4] = tested on: KM12C human colon cancer cell line; settings: KM12C (p53 MT/LIG4 MT); 25 μM and 50 μM, 48 hours
From the text: as §2

COc1ccc(C(=O)C2CCN(CC(=O)N(Cc3nc4c(c(=O)[nH]3)COCC4)CC3CC3)CC2)cc1 [NVP-TNKS656, reference compound]
degree of apoptosis (trypan blue cell count) [1]: no change in apoptosis | degree of apoptosis (trypan blue cell count) [2]: No apoptosis occurred | degree of apoptosis (trypan blue cell count) [3]: No apoptosis occurred | degree of apoptosis (trypan blue cell count) [4]: No apoptosis occurred
